Here are results for one compound from patent US20130112218A1, “USE OF ELLAGIC ACID AS AN ANTI-DANDRUFF AGENT” (priority 2010, published 2013).

SMILES strings stand for the structures.

For test [1], the system named is yeasts of the Malassezia genus. Nature of the test: Test of effectiveness in an aqueous-alcoholic gel by leave-in application. The format is in vivo. The following applies: ellagic acid 0.5% by weight in aqueous-alcoholic gel A, two applications per week, after one week of treatment, 25 individuals with dandruff, corneodisc count, placebo 29%. The procedure:
The aqueous-alcoholic gel for leave-in use A according to the invention was prepared according to the following table. The amounts are indicated as percent by weight of active material (A.M.) relative to the total weight of the composition. The study was carried out on a group of 25 individuals who had scalps with dandruff displaying an excessive proliferation of yeasts of the Malassezia genus. After two weeks of neutral shampoo, the individuals were treated with gel A of the invention or with an equal amount of a placebo comparative composition (identical composition without ellagic acid), at a rate of two applications per week. The yeasts per unit surface area were counted using a corneodisc sample of squamae.

Test [2] concerns scalps with dandruff displaying an excessive proliferation of yeasts of the Malassezia genus. Nature of the test: Test of effectiveness in a shampoo. As to conditions: ellagic acid 1% by weight in shampoo B, rinsed out, twice a week for four weeks; 21 individuals with dandruff. Type of test: in vivo. The procedure: The shampoo B according to the invention was prepared according to the following table. The amounts are indicated as percent by weight of active material (A.M.) relative to the total weight of the composition. The study was carried out on a group of 21 individuals who had scalps with dandruff displaying an excessive proliferation of yeasts of the Malassezia genus. After two weeks of neutral shampoo, the shampoo composition B according to the invention was applied to the scalp for each individual. The composition was then rinsed out with water. This anti-dandruff treatment method was repeated twice a week for four weeks.

With `O=c1oc2c(O)c(O)cc3c(=O)oc4c(O)c(O)cc1c4c23` [ellagic acid, 2,3,7,8-tetrahydroxy(1)benzopyrano(5,4,3-cde)(1)benzopyran-5,10-dione], in test [1], the “reduction in the number of Malassezia yeasts present on the scalp” value was determined as 56%. Further, in test [2], the anti-dandruff effectiveness entry was “clear anti-dandruff effectiveness”.
